Source: PubChem BioAssay AID330 (DTP/NCI, 2004)
Where “and” joins values, the source holds several entries; their conditions need not be identical. Equal values may be shown once. Inconclusive results and toxic doses are left out.

Test system: P388 leukemia ip, CD2F1 mice, survival T/C
Test: NCI In Vivo Anticancer Drug Screen. Data for tumor model P388 Leukemia (intraperitoneal) in CD2F1 (CDF1) mice
Settings: endpoint: median survival time, higher = longer survival
Method in brief: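 Mice carrying the transplanted tumor received test compound or vehicle. Survival was recorded in each group, and the value is the treated-group measurement divided by that of the vehicle-treated control group.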

[1] = dose: 50.0 mg/kg/injection, schedule: Q01DX009 (ip), vehicle: saline with Tween-80
[2] = dose: 100.0 mg/kg/injection, schedule: Q01DX009 (ip), vehicle: saline with Tween-80
[3] = dose: 200.0 mg/kg/injection, schedule: Q01DX009 (ip), vehicle: saline with Tween-80
[4] = dose: 60.0 mg/kg/injection, schedule: Q01DX005 (ip), vehicle: Klucel (hydroxypropylcellulose) (HPC)
[5] = dose: 100.0 mg/kg/injection, schedule: Q04DX002 (ip), vehicle: saline
[6] = dose: 200.0 mg/kg/injection, schedule: Q04DX002 (ip), vehicle: saline

With `O=S(=O)(/C=C/c1ccc(F)cc1)Cc1ccccc1` the T/C (dose: 50.0 mg/kg/injection, schedule: Q01DX005 (ip), vehicle: saline with Tween-80) was 92 % of control, the T/C (dose: 100.0 mg/kg/injection, schedule: Q01DX005 (ip), vehicle: saline with Tween-80) was 92 % of control and the T/C (dose: 200.0 mg/kg/injection, schedule: Q01DX005 (ip), vehicle: saline with Tween-80) was 90 % of control.
For `O=c1[nH]cc(Br)c2sccc12`, the T/C (dose: 25.0 mg/kg/injection, schedule: Q01DX009 (ip), vehicle: saline with Tween-80) was 109 % of control, the T/C [1] was 109 % of control and the T/C [2] was 109 % of control.
`CCOC(=O)Nc1ccc2nc(Sc3ccc(C)cc3)sc2c1` was tested, and the T/C [1] was 99 % of control, the T/C [2] was 110 % of control and the T/C [3] was 119 % of control.
With `O=C(NC1(Sc2ccccc2)CC1)c1ccc(Cl)cc1` the T/C (dose: 15.0 mg/kg/injection, schedule: Q01DX005 (ip), vehicle: Klucel (hydroxypropylcellulose) (HPC)) was 98 % of control, the T/C (dose: 30.0 mg/kg/injection, schedule: Q01DX005 (ip), vehicle: Klucel (hydroxypropylcellulose) (HPC)) was 88 % of control and the T/C [4] was 88 % of control.
With `CCOC(=O)c1cnc(NCCCCCCNc2ncc(C(=O)OCC)c(=O)[nH]2)[nH]c1=O` the T/C (dose: 50.0 mg/kg/injection, schedule: Q01DX005 (ip), vehicle: Klucel (hydroxypropylcellulose) (HPC)) was 97 % of control and the T/C (dose: 100.0 mg/kg/injection, schedule: Q01DX005 (ip), vehicle: Klucel (hydroxypropylcellulose) (HPC)) was 91 % of control.
`COc1ccc(S(=O)(=O)OCCCl)cc1` was tested, and the T/C [1] was 100 % of control, the T/C [2] was 97 % of control and the T/C [3] was 100 % of control.
For `O=C(Cc1ccc(OCc2ccccc2)cc1)OCc1ccco1`, the T/C [1] was 109 % of control, the T/C [2] was 100 % of control and the T/C [3] was 100 % of control.
`NC(CC(=O)CCl)C(=O)O` (stereo not given) was tested, and the T/C (dose: 5.0 mg/kg/injection, schedule: Q01DX009 (ip), vehicle: saline with Tween-80) was 154 % of control, the T/C (dose: 6.25 mg/kg/injection, schedule: Q04DX003 (ip), vehicle: saline) was 150 % of control and the T/C (dose: 10.0 mg/kg/injection, schedule: Q01DX009 (ip), vehicle: saline with Tween-80) was 168 % of control. The T/C (dose: 12.5 mg/kg/injection, schedule: Q04DX003 (ip), vehicle: saline) was 166 % of control, the T/C (dose: 20.0 mg/kg/injection, schedule: Q01DX009 (ip), vehicle: saline with Tween-80) was 159 % of control and the T/C (dose: 50.0 mg/kg/injection, schedule: Q04DX003 (ip), vehicle: saline) was 176 % of control.
`O=S(=O)(OC(=C(c1ccccc1)c1ccccc1)c1ccccc1)C(F)(F)F` was tested, and the T/C (dose: 50.0 mg/kg/injection, schedule: Q01DX009 (ip), vehicle: olive oil, sesame oil, peanut oil) was 99 % of control, the T/C (dose: 100.0 mg/kg/injection, schedule: Q01DX009 (ip), vehicle: olive oil, sesame oil, peanut oil) was 107 % of control and the T/C (dose: 200.0 mg/kg/injection, schedule: Q01DX009 (ip), vehicle: olive oil, sesame oil, peanut oil) was 112 % of control.
For `Cc1ccc(S(=O)(=O)N/N=C/c2c(Cl)n(C(=O)c3ccccc3C)c3ccccc23)cc1`, the T/C (dose: 100.0 mg/kg/injection, schedule: Q01DX001 (ip), vehicle: Klucel (hydroxypropylcellulose) (HPC)) was 97 % of control, the T/C (dose: 200.0 mg/kg/injection, schedule: Q01DX001 (ip), vehicle: Klucel (hydroxypropylcellulose) (HPC)) was 91 % of control and the T/C (dose: 400.0 mg/kg/injection, schedule: Q01DX001 (ip), vehicle: Klucel (hydroxypropylcellulose) (HPC)) was 89 % of control.
In the case of `Cc1cc(=O)n2c(nc3ccccc32)o1`, the T/C [4] is reported as 104 % of control, the T/C (dose: 120.0 mg/kg/injection, schedule: Q01DX005 (ip), vehicle: Klucel (hydroxypropylcellulose) (HPC)) is reported as 104 % of control and the T/C (dose: 240.0 mg/kg/injection, schedule: Q01DX005 (ip), vehicle: Klucel (hydroxypropylcellulose) (HPC)) is reported as 99 % of control.
With `CN1C(c2ccncc2)=NCC12CCCCC2` the T/C (dose: 6.25 mg/kg/injection, schedule: Q01DX005 (ip), vehicle: saline) was 97 % of control, the T/C (dose: 12.5 mg/kg/injection, schedule: Q01DX005 (ip), vehicle: saline) was 100 % of control and the T/C (dose: 12.5 mg/kg/injection, schedule: Q04DX002 (ip), vehicle: saline) was 106 % of control. The T/C (dose: 25.0 mg/kg/injection, schedule: Q01DX005 (ip), vehicle: saline) was 95 % of control and the T/C (dose: 25.0 mg/kg/injection, schedule: Q04DX002 (ip), vehicle: saline) was 106 % of control.
For `O=C(NCC1OC(n2cnc3c(=O)[nH]cnc32)C(O)C1O)c1ccc(S(=O)(=O)F)cc1` (stereo not given), the T/C (dose: 50.0 mg/kg/injection, schedule: Q01DX001 (ip), vehicle: saline with Tween-80) was 99 % of control, the T/C (dose: 100.0 mg/kg/injection, schedule: Q01DX001 (ip), vehicle: saline with Tween-80) was 96 % of control and the T/C (dose: 200.0 mg/kg/injection, schedule: Q01DX001 (ip), vehicle: saline with Tween-80) was 108 % of control.
For `CCN(CC)CCCNc1nnnc2ccccc12`, the T/C [5] was 103 % of control and the T/C [6] was 90 % of control.
With `O=C1NC(=O)C(=C2C(=O)COC2=O)C(=O)N1` the T/C (dose: 60.0 mg/kg/injection, schedule: Q01DX005 (ip), vehicle: saline) was 103 % of control, the T/C (dose: 120.0 mg/kg/injection, schedule: Q01DX005 (ip), vehicle: saline) was 106 % of control and the T/C (dose: 240.0 mg/kg/injection, schedule: Q01DX005 (ip), vehicle: saline) was 104 % of control.
`Cc1ccc(C(=O)Cc2nc(C#N)c(C#N)nc2CC(=O)c2ccc(C)cc2)cc1` was tested, and the T/C (dose: 60.0 mg/kg/injection, schedule: Q01DX005 (ip), vehicle: saline with Tween-80) was 112 % of control and the T/C (dose: 120.0 mg/kg/injection, schedule: Q01DX005 (ip), vehicle: saline with Tween-80) was 120 % of control.
With `O=c1[nH]c(=O)c2nc(-c3cccc([N+](=O)[O-])c3)cnc2[nH]1` the T/C [5] was 101 % of control, the T/C [6] was 113 % of control and the T/C (dose: 400.0 mg/kg/injection, schedule: Q04DX002 (ip), vehicle: saline) was 106 % of control.
For `CCc1ccc2c(c1)N(CCCN(CCCl)CCCl)c1ccccc1S2`, the T/C (dose: 0.78 mg/kg/injection, schedule: Q01DX009 (ip), vehicle: saline with Tween-80) was 106 % of control and the T/C (dose: 1.56 mg/kg/injection, schedule: Q01DX009 (ip), vehicle: saline with Tween-80) was 101 % of control and 115 % of control.
